These are literature values, as cited in publication PMC3263412 (International Journal of Nanomedicine, 2012).

SMILES strings stand for the structures.

For the compound `CCCCCCCCCCCCCCCC[N+](C)(C)C` [CTAB, Cetyltrimethyl ammonium bromide], the cytotoxicity result is reported as “marked cytotoxicity”.
